This is an account of results in patent US20110008264A1, “METHOD FOR REPELLING A RODENT, METHOD FOR CAPTURING A RODENT AND RODENT REPELLENT” (Earth Chemical Co., Ltd., priority 2006, published 2011).

One test relates to mouse (ddY male mouse). In words: Inhibition zone formation around impregnated filter paper in rearing cage (Test Example 6). Format: in vivo. The note with it: 50 μl on filter paper, 16 mice; for Formation rate of inhibition zone: time until inhibition zone is formed. The procedure: A total of 16 animals of a mouse (ddY male mouse of 7 weeks of age) were released in a rearing cage (16 cm in breadth, 23 cm in length and 20 cm in height). Thereafter, a piece of filter paper (1 cm in width and 10 cm in length) impregnated with 50 μl of essential oil shown in the following Table 4 or 50 μl of water was hung down from the center of the ceiling of the rearing cage, and a period of time until a state in which mice gathered in the periphery in the rearing cage but mice are not present around the filter paper (inhibition zone) is formed was measured.

The next test deals with rodent (mouse). Format: in vivo. The note with it: Test Example 1, text; azodicarbonamide at 0.2 g, nitrocellulose at 23 g.

Turning to `CCCCCCOC(C)=O` [Hexyl acetate], in the test on mouse (ddY male mouse), the “Presence of inhibition zone” value is listed as “present” and the “Formation rate of inhibition zone” value came to 24 s.

Turning to `NC(=O)N=NC(N)=O` [azodicarbonamide], the “Repelled rodents in comparison with the control” value in the test on rodent (mouse) is reported as “a distinct difference was observed in comparison with the control”.

With `Cc1ccc(C(C)C)cc1` [p-Cymene], in the test on mouse (ddY male mouse), the “Presence of inhibition zone” value is “present” and the “Formation rate of inhibition zone” value worked out at 50 s.

Regarding `CC1=CCC(C(C)C)=CC1` [γ-Terpinene], in the test with mouse (ddY male mouse), the “Presence of inhibition zone” value was “present” and the “Formation rate of inhibition zone” value worked out at 23 s.
